This passage reports IC50 results from PubChem BioAssay AID602235 (The Scripps Research Institute Molecular Screening Center, 2012).

The source made the active and inactive calls. No rule for the calls is given here.

For the assay, the target named is Nuclear receptor coactivator 1 (Homo sapiens) (UniProt Q15788). Description: inhibition of NCOA1 transcriptional coactivation in cells – cell-based, luciferase reporter, luminescence, dose response (AID 602235).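 Also: cells transfected with pGL4.31 reporter plus pBIND-SRC1 vector; potency is for inhibitors that lower SRC1 reporter luminescence.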 The conditions noted are these: cell-based SRC1 luciferase reporter. Background: A reporter such as luciferase makes a cellular process visible.
Chain of Nuclear receptor coactivator 1 (Homo sapiens) (Q15788 whole entry, looked up): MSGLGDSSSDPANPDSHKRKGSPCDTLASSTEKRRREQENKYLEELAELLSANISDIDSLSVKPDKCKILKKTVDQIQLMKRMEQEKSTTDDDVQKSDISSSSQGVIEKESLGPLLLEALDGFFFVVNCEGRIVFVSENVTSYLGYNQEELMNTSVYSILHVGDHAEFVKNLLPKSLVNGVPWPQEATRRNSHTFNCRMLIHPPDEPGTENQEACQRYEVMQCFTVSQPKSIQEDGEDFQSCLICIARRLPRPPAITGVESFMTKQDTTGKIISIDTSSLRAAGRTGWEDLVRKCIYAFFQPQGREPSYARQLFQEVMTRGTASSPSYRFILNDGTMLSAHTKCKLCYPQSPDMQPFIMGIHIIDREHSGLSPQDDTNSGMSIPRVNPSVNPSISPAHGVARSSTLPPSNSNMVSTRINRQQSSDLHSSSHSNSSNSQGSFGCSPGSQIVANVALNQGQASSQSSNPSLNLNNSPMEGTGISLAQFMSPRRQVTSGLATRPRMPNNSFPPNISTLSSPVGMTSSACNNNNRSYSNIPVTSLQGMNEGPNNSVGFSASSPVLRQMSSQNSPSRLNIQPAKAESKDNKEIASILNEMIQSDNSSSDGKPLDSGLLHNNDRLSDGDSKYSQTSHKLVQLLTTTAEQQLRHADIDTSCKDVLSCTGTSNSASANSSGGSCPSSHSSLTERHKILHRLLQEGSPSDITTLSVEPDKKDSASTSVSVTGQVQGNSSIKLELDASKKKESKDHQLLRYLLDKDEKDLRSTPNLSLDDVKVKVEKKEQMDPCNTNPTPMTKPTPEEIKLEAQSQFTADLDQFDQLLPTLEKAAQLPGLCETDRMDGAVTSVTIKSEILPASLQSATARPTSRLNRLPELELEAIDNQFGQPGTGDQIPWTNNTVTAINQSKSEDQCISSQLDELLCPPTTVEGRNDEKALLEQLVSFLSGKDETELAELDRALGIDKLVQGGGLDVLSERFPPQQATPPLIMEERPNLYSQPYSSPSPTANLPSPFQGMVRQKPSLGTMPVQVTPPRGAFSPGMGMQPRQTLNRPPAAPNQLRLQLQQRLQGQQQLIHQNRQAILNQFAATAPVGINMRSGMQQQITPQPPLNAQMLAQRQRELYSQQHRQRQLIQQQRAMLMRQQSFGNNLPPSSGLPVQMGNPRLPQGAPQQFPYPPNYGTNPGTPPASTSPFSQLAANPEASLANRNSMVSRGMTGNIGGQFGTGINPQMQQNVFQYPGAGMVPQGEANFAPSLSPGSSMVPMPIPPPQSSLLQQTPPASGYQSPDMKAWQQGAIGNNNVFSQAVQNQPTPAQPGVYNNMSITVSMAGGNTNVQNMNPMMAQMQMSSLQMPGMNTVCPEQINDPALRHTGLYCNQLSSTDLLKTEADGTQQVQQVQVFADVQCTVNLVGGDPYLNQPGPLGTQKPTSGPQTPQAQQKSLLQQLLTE
What is called IC50 is the point on the concentration scale where inhibition reaches its midpoint. For the compound `Cc1ccccc1C(=O)/C(C#N)=N/Nc1c(C)n(C)n(-c2ccccc2)c1=O`, the IC50 entry is “inactive”.

For `CC(=O)N1CCN(c2ccc(Oc3ncnc4sccc34)cc2)CC1`, the IC50 result is “inactive”.

Regarding `COc1ccc(C(O)(C(C)C)C(CN2CCOCC2)c2ccc(Cl)cc2)cc1` (stereo unspecified), the IC50 entry is “inactive”.

In the case of `COc1cccc2c1C(=N)c1c(O)c3c(c(O)c1C2=O)CC(O)(C(C)=O)CC3OC1CC(N)C(O)C(C)O1` (stereo unspecified), the IC50 is > 35.9 µM (inactive).

For the compound `Nc1nc(CCl)nc(Nc2cccc3ccccc23)n1`, the IC50 result is “inactive”.

On to `c1cnc2ccc(-n3ccnc3)cc2c1`, for which the IC50 was > 35.9 µM (inactive).

In the case of `CCOC(=O)CC(=O)CSc1nccc(-c2cccnc2)n1`, the IC50 entry is “inactive”.

Turning to `O=C1NCCc2c1[nH]c1ccc([N+](=O)[O-])cc21`, the IC50 result is “inactive”.

For the compound `CC(=O)/C(N=Nc1ccc2c(c1)OCCO2)=C(\C)O`, the IC50 is > 35.9 µM (inactive).

As for `O=C(Nc1cccc(C(F)(F)F)c1)Nc1nnc([C@@H]2C[C@H](O)[C@@H](CO)O2)s1`, the concentration for half-maximal inhibition (IC50) was 9.55 µM.

On to `O=C(Nc1cccnc1)c1ccc(C(=O)Nc2cccnc2)cc1`, for which the IC50 was > 35.9 µM (inactive).

For the compound `Cc1ccc(S(=O)(=O)N2[C@@H](c3ccc(C(C)(C)C)cc3)C(C(=O)O)=CC[C@H]2c2ccc(Cl)cc2)cc1`, the IC50 result was “inactive”.

For `Cc1ccc(S(=O)(=O)Nc2c(NC3CCCCC3)c3ccccc3oc2=O)c(C)c1`, the IC50 was > 35.9 µM (inactive).

`COc1cccc(/C=N/NC(=O)C(=O)Nc2ccccc2OC(F)(F)C(F)F)c1O`: the IC50 was 5.69 µM.

Take `Cn1c(=O)c2[nH]c(COc3ccc(C(C)(C)C)cc3)nc2n(C)c1=O`: the IC50 result is “inactive”.

In the case of `COC(=O)N(NC(=O)C(O)(CCC(C)C)CCC(C)C)c1ccccc1`, the IC50 is > 35.9 µM (inactive).

As for `COc1ccc2ncn(-c3ccccc3)c2c1`, the IC50 is 8.16 µM.

As to `O=C(Nc1nc(-c2ccccn2)cs1)c1cccc(-n2cnnn2)c1`, the IC50 result is “inactive”.

Turning to `CC1CCCCN1c1ncnc2ccccc12` (stereo unspecified), the IC50 was > 35.9 µM (inactive).

Regarding `COc1ccc(CNc2ncc(-c3ccc(F)cc3)n2C)c2ccccc12`, the IC50 entry is “inactive”.

`CCOc1cccc(/C=N/NC(=O)c2cccnc2)c1O`: the IC50 is > 12 µM (inactive).

For `CCCCCOc1ccc(/C=C/c2c([N+](=O)[O-])c(=O)n(C)c(=O)n2C)cc1`, the IC50 was 9.08 µM.

On to `CN(Cc1cnc2nc(N)nc(N)c2n1)c1ccc(C(=O)NC(CCC(=O)O)C(=O)O)cc1` (stereo unspecified), for which the IC50 was > 35.9 µM (inactive).

With `Cc1ccc2nc(C(F)(F)F)c(C#N)c(N)c2c1`, the IC50 entry is “inactive”.

Consider `Nc1ncccc1C(=O)OCC(=O)N1CCN(S(=O)(=O)c2ccc(Cl)cc2)CC1`, for which the IC50 result is “inactive”.

With `Nc1ccc(Oc2ccccc2-c2ccccc2)cc1`, the IC50 result is “inactive”.

As for `Cc1sc2ncnc(N3CCC(C(=O)Nc4cc(S(C)(=O)=O)ccc4Cl)CC3)c2c1C`, the IC50 entry was “inactive”.

Regarding `Oc1ccc(C=NNc2ccccn2)c(O)c1`, the IC50 result is “inactive”.

`NC(=S)NN=Cc1nccc2c(N)cccc12`: the IC50 entry is “inactive”.

With `Cc1cccn2c(=O)c3cc(C(=O)NCCN4CCOCC4)c(=N)n(Cc4cccnc4)c3nc12`, the IC50 entry was “inactive”.

Regarding `N#Cc1c(-c2ccccc2)c(C#N)c2nc3ccccc3n2c1N`, the IC50 is > 35.9 µM (inactive).

With `C=CCn1c(O)c(C(C)=NCc2cc(OC)cc(OC)c2)c(=O)[nH]c1=O`, the IC50 result was “inactive”.

For the compound `CC(=O)c1cc2c(C)cc(=O)oc2cc1O`, the IC50 is > 35.9 µM (inactive).

With `COc1ccccc1/C=C\C(=O)NCC(=O)N/N=C/c1cccc(OC)c1O`, the IC50 result is “inactive”.

On to `COc1ccc(Cc2nnc(SCc3ccc([N+](=O)[O-])cc3)o2)cc1`, for which the IC50 result was “inactive”.

As to `Cc1ccc(NC(=O)CCC(=O)N/N=C/c2ccc(O)cc2O)cc1`, the IC50 result is “inactive”.

As for `O=C(CCn1cnc(-c2ccccc2)c1-c1ccccc1)N/N=C/c1ccccc1O`, the IC50 entry is “inactive”.

Turning to `Cc1ccc(O)c(C(=O)c2cnn(C(=O)COc3ccc(Cl)cc3)c2)c1`, the IC50 result is “inactive”.

As to `CN(C)c1ccc(Nc2ncnc3ccc(Br)cc23)cc1`, the IC50 is 9.96 µM.

Regarding `CCc1c(C)nc2c(C)cccc2c1SCCC#N`, the IC50 was > 35.9 µM (inactive).

On to `Cc1ccc2occ(/C=N/NC(=O)[C@@H](N)Cc3ccccc3)c(=O)c2c1`, for which the IC50 is 8.08 µM.

With `CCC(C)(C)n1nnnc1CN1CCC(n2c(C)nc3cc(C(F)(F)F)ccc32)CC1`, the IC50 is > 35.9 µM (inactive).

As for `O=C(O)c1ccccc1-c1c2cc(I)c(=O)c(I)c-2oc2c(I)c(O)c(I)cc12`, the IC50 was > 35.9 µM (inactive).

`O=C(Nc1nc(-c2ccccn2)cs1)c1cccc(S(=O)(=O)N2CCOCC2)c1`: the IC50 entry is “inactive”.

`Cc1c(/C(O)=C2/C(=O)C(=O)N(Cc3cccnc3)C2c2ccccn2)cnn1-c1ccccc1` (stereo unspecified): the IC50 result is “inactive”.

In the case of `CCc1ccc(-c2nc(CSCC(=O)NCc3ccco3)c(C)o2)cc1`, the IC50 is > 35.9 µM (inactive).

For `O=C(N/N=C/c1ccccc1O)/C(=C/c1ccccc1)CCO`, the IC50 result is “inactive”.

With `Cc1ccc(C)c(NC(=O)c2ccccc2NS(=O)(=O)c2cc([N+](=O)[O-])ccc2C)c1`, the IC50 is 4.81 µM.

For the compound `Nc1ccn(C2OC(CO)C(O)C2O)c(=O)n1` (stereo unspecified), the IC50 is > 11.9 µM (inactive).

With `CC(=O)c1cccc(NC(=O)COc2cc3oc(=O)c(CC(C)O)c(C)c3cc2Cl)c1` (stereo unspecified), the IC50 is > 35.9 µM (inactive).

Regarding `COc1ccc(OC)c(/C=C2\NC(=O)NC2=O)c1`, the IC50 is 7.42 µM.

Take `COC(CN(C(=O)CCl)C(C(=O)NC1CCCCC1)c1ccccc1C)OC` (stereo unspecified): the IC50 is 9.53 µM.

As to `O=C(COC(=O)c1ccc[nH]c1=O)Nc1ccc(N2CCCCC2)cc1`, the IC50 is > 35.9 µM (inactive).

Take `CC(C)n1c(SCC(=O)Nc2nc3c(s2)CCCC3)nc2c1c(=O)n(C)c(=O)n2C`: the IC50 result was “inactive”.

Regarding `O=[N+]([O-])c1ccc(N(CCO)CCO)c2c1no[n+]2[O-]`, the IC50 result is “inactive”.

Regarding `N#Cc1c2ccc(O)cc2n2ccccc12`, the IC50 was > 35.9 µM (inactive).

For `O=C(Nc1ccncc1)c1ccccc1[N+](=O)[O-]`, the IC50 was 9.54 µM.

As for `Cc1cc(/C=C2\Cc3ccccc3C2=O)c(C)n1-c1ccccc1`, the IC50 is > 35.9 µM (inactive).

With `O=[N+]([O-])c1cccc2c1ccc1ncccc12`, the IC50 is 9.46 µM.

As to `CNc1ncnc(Sc2nc(N)nc3nc[nH]c23)c1[N+](=O)[O-]`, the IC50 is > 35.9 µM (inactive).

`COc1cccc(CNc2ncnc3ccc(-c4c(C)noc4C)cc23)c1`: the IC50 is > 35.9 µM (inactive).

On to `O=C(N/N=C/c1cc([N+](=O)[O-])ccc1O)c1cccc(N2CCCC2=O)c1`, for which the IC50 result is “inactive”.

Take `Nc1ccc(-c2cc3ccccc3oc2=O)cc1`: the IC50 was 8.96 µM.

On to `CC1(C)Cc2c(ccc3ccccc23)C(=O)N1`, for which the IC50 entry is “inactive”.

Turning to `Cc1nn(C(C)(C)C)c(C)c1/C=N/OC(=O)Nc1ccc(Cl)c(Cl)c1`, the IC50 entry is “inactive”.

As to `O=C(CCl)N1N=C(c2cccs2)CC1c1ccco1` (stereo unspecified), the IC50 was > 35.9 µM (inactive).
